Measurements from patent EP2951180B1, “2,6,7,8 SUBSTITUTED PURINES AS HDM2 INHIBITORS” (Merck Sharp & Dohme Corp., priority 2013, dated 2014).

Target: T1, HDM2 (Homo sapiens, UniProt Q00987)
T1 construct: Thioredoxin (N); made in house; host or cells: E. coli strain BL21(DE3)Rosetta
Assay: FRET assay (HDM2 inhibition; method not described in this part)
Type: binding
Conditions: Table 1

T1 sequence (Q00987 17-125): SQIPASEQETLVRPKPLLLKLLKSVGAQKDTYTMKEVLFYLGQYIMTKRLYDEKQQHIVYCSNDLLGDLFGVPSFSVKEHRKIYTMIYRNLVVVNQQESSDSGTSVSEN

Q: With `C[C@@H](Nc1nc(C(=O)O)nc2nc(-c3ccc(N4CCOCC4)cc3)n(Cc3ccc(C(F)(F)F)cc3)c12)C1CC1` [Example 1.97, 6-{[(1R)-1-cyclopropylethyl]amino} -8-(4-morpholin-4-ylphenyl)-7-[4-(trifluoromethyl)benzyl]-7H-purine-2-carboxylic acid] as the molecule, how does the IC50 read?
A: 1540 nM

Q: With `CC(C)Oc1cccc(-c2nc3nc(C(=O)O)nc(N[C@H](C)C4CC4)c3n2Cc2ccc(C(F)(F)F)cc2)c1` [Example 1.98, 6-{[(1R)-1-cyclopropylethyl]amino} -8-[3-(1-methylethoxy)phenyl]-7-[4-(trifluoromethyl)benzyl]-7H-purine-2-carboxylic acid] as the molecule, how does the IC50 read?
A: 316 nM

Q: `Cc1ccc(C)c(-c2nc3nc(C(=O)O)nc(N[C@H](C)C4CCC4)c3n2Cc2ccc(C(F)(F)F)cc2)c1` [Example 1.99, 6-{[(1R)-1-cyclobutylethyl]amino}-8-(2,5-dimethylphenyl)-7-[4-(trifluoromethyl)benzyl]-7H-purine-2-carboxylic acid] was tested. Which IC50 did it give?
A: 14.9 nM

Q: For `C[C@@H](Nc1nc(C(=O)O)nc2nc(-c3ccc(OC(F)F)cc3)n(Cc3ccc(C(F)(F)F)cc3)c12)C1CCC1` [Example 1.100, 6-{[(1R)-1-cyclobutylethyl]amino}-8-[4-(difluoromethoxy)phenyl]-7-[4-(trifluoromethyl)benzyl]-7H-purine-2-carboxylic acid], which IC50 is on record?
A: 51.8 nM

Q: With `CC(O)c1ccc(-c2nc3nc(C(=O)O)nc(N[C@H](C)C4CCC4)c3n2Cc2ccc(C(F)(F)F)cc2)cc1` (stereo partly drawn) [Example 1.101, 6-{[(1R)-1-cyclobutylethyl]amino}-8-[4-(1-hydroxyethyl)phenyl]-7-[4-(trifluoromethyl)benzyl]-7H-purine-2-carboxylic acid] as the molecule, how does the IC50 read?
A: 34.2 nM

Q: `Cc1ccc(-c2nc3nc(C(=O)O)nc(N[C@H](C)C4CCC4)c3n2Cc2ccc(C(F)(F)F)cc2)cc1F` [Example 1.102, 6-{[(1R)-1-cyclobutylethyl]amino}-8-(3-fluoro-4-methylphenyl)-7-[4-(trifluoromethyl)benzyl]-7H-purine-2-carboxylic acid] was tested. Which IC50 did it give?
A: 20.3 nM

Q: With `Cc1ccc(F)cc1-c1nc2nc(C(=O)O)nc(N[C@H](C)C3CCC3)c2n1Cc1ccc(C(F)(F)F)cc1` [Example 1.103, 6-{[(1R)-1-cyclobutylethyl]amino}-8-(5-fluoro-2-methylphenyl)-7-[4-(trifluoromethyl)benzyl]-7H-purine-2-carboxylic acid] as the molecule, how does the IC50 read?
A: 10.8 nM

Q: Which IC50 does the source give for `COc1ccc(-c2nc3nc(C(=O)O)nc(N[C@H](C)C4CCC4)c3n2Cc2ccc(C(F)(F)F)cc2)cc1F` [Example 1.104, 6-{[(1R)-1-cyclobutylethyl]amino}-8-(3-fluoro-4-methoxyphenyl)-7-[4-(trifluoromethyl)benzyl]-7H-purine-2-carboxylic acid] here?
A: 17.4 nM

Q: With `COc1ccc(-c2nc3nc(C(=O)O)nc(N[C@H](C)C4CCC4)c3n2Cc2ccc(C(F)(F)F)cc2)cc1C` [Example 1.105, 6-{[(1R)-1-cyclobutylethyl]amino}-8-(4-methoxy-3-methylphenyl)-7-[4-(trifluoromethyl)benzyl]-7H-purine-2-carboxylic acid] as the molecule, how does the IC50 read?
A: 16.5 nM

Q: With `C[C@@H](Nc1nc(C(=O)O)nc2nc(-c3ccc4nccnc4c3)n(Cc3ccc(C(F)(F)F)cc3)c12)C1CCC1` [Example 1.106, 6-{[(1R)-1-cyclobutylethyl]amino}-8-quinoxalin-6-yl-7-[4-(trifluoromethyl)benzyl]-7H-purine-2-carboxylic acid] as the molecule, how does the IC50 read?
A: 23.5 nM

Q: Which IC50 does the source give for `C[C@@H](Nc1nc(C(=O)O)nc2nc(-c3cccc(-n4cccc4)c3)n(Cc3ccc(C(F)(F)F)cc3)c12)C1CCC1` [Example 1.107, 6-{[(1R)-1-cyclobutylethyl]amino}-8-[3-(1H-pyrrol-1-yl)phenyl]-7-[4-(trifluoromethyl)benzyl]-7H-purine-2-carboxylic acid] here?
A: 34.8 nM

Q: How did the IC50 turn out when `C[C@@H](Nc1nc(C(=O)O)nc2nc(-c3ccc4c(ccn4C)c3)n(Cc3ccc(C(F)(F)F)cc3)c12)C1CCC1` [Example 1.108, 6-{[(1R)-1-cyclobutylethyl]amino}-8-(1-methyl-1H-indol-5-yl)-7-[4-(trifluoromethyl)benzyl]-7H-purine-2-carboxylic acid] was run?
A: 60.9 nM

Q: For `C[C@@H](Nc1nc(C(=O)O)nc2nc(-c3ccc(-c4ccccc4)cc3)n(Cc3ccc(C(F)(F)F)cc3)c12)C1CCC1` [Example 1.109, 8-biphenyl-4-yl-6-{[(1R)-1-cyclobutylethyl]amino}-7-[4-(trifluoromethyl)benzyl]-7H-purine-2-carboxylic acid], which IC50 is on record?
A: 473 nM

Q: How did the IC50 turn out when `C[C@@H](Nc1nc(C(=O)O)nc2nc(-c3ccc(C4CCCCC4)cc3)n(Cc3ccc(C(F)(F)F)cc3)c12)C1CCC1` [Example 1.110, 6-{[(1R)-1-cyclobutylethyl]amino}-8-(4-cyclohexylphenyl)-7-[4-(trifluoromethyl)benzyl]-7H-purine-2-carboxylic acid] was run?
A: 3700 nM

Q: For `Cc1ccc2cc(-c3nc4nc(C(=O)O)nc(N[C@H](C)C5CCC5)c4n3Cc3ccc(C(F)(F)F)cc3)ccc2n1` [Example 1.111, 6-{[(1R)-1-cyclobutylethyl]amino}-8-(2-methylquinolin-6-yl)-7-[4-(trifluoromethyl)benzyl]-7H-purine-2-carboxylic acid], which IC50 is on record?
A: 128 nM

Q: How did the IC50 turn out when `C[C@@H](Nc1nc(C(=O)O)nc2nc(-c3ccc(-c4ccccc4)c(F)c3)n(Cc3ccc(C(F)(F)F)cc3)c12)C1CCC1` [Example 1.112, 6-{[(1R)-1-cyclobutylethyl]amino}-8-(2-fluorobiphenyl-4-yl)-7-[4-(trifluoromethyl)benzyl]-7H-purine-2-carboxylic acid] was run?
A: 344 nM

Q: For `C[C@@H](Nc1nc(C(=O)O)nc2nc(-c3ccc(N(C)C)cc3)n(Cc3ccc(C(F)(F)F)cc3)c12)C1CCC1` [Example 1.113, 6-{[(1R)-1-cyclobutylethyl]amino}-8-[4-(dimethylamino)phenyl]-7-[4-(trifluoromethyl)benzyl]-7H-purine-2-carboxylic acid], which IC50 is on record?
A: 716 nM

Q: Which IC50 does the source give for `C[C@@H](Nc1nc(C(=O)O)nc2nc(-c3ccc(C(C)(C)C)cc3)n(Cc3ccc(C(F)(F)F)cc3)c12)C1CCC1` [Example 1.114, 8-(4-tert-butylphenyl)-6-{[(1R)-1-cyclobutylethyl]amino}-7-[4-(trifluoromethyl)benzyl]-7H-purine-2-carboxylic acid] here?
A: 393 nM

Q: For `C[C@@H](Nc1nc(C(=O)O)nc2nc(-c3ccc(Cl)c(C(F)(F)F)c3)n(Cc3ccc(C(F)(F)F)cc3)c12)C1CCC1` [Example 1.115, 8-[4-chloro-3-(trifluoromethyl)phenyl]-6-{[(1R)-1-cyclobutylethyl]amino}-7-[4-(trifluoromethyl)benzyl]-7H-purine-2-carboxylic acid], which IC50 is on record?
A: 17.3 nM

Q: With `C[C@@H](Nc1nc(C(=O)O)nc2nc(-c3ccc(C(=O)C4CC4)cc3)n(Cc3ccc(C(F)(F)F)cc3)c12)C1CCC1` [Example 1.116, 6-{[(1R)-1-cyclobutylethyl]amino}-8-[4-(cyclopropylcarbonyl)phenyl]-7-[4-(trifluoromethyl)benzyl] - 7H-purine-2-carboxylic acid] as the molecule, how does the IC50 read?
A: 66.3 nM

Q: With `C[C@@H](Nc1nc(C(=O)O)nc2nc(-c3ccc4occc4c3)n(Cc3ccc(C(F)(F)F)cc3)c12)C1CCC1` [Example 1.117, 8-(1-benzofuran-5-yl)-6-{[(1R)-1-cyclobutylethyl]amino}-7-[4-(trifluoromethyl)benzyl]-7H-purine-2-carboxylic acid] as the molecule, how does the IC50 read?
A: 16.7 nM

Q: With `Cc1cc(-c2nc3nc(C(=O)O)nc(N[C@H](C)C4CC4)c3n2Cc2ccc(C(F)(F)F)cc2)ccn1` [Example 1.118, 6-{[(1R)-1-cyclopropylethyl]amino} -8-(2-methylpyridin-4-yl)-7-[4-(trifluoromethyl)benzyl]-7H-purine-2-carboxylic acid] as the molecule, how does the IC50 read?
A: 1370 nM

Q: How did the IC50 turn out when `COc1ccc(C)cc1-c1nc2nc(C(=O)O)nc(N[C@H](C)C3CCC3)c2n1Cc1ccc(C(F)(F)F)cc1` [Example 1.119, 6-{[(1R)-1-cyclobutylethyl]amino}-8-(2-methoxy-5-methylphenyl)-7-[4-(trifluoromethyl)benzyl]-7H-purine-2-carboxylic acid] was run?
A: 9.97 nM

Q: For `Cc1ccc(Cl)c(-c2nc3nc(C(=O)O)nc(N[C@H](C)C4CCC4)c3n2Cc2ccc(C(F)(F)F)cc2)c1` [Example 1.120, 8-(2-chloro-5-methylphenyl)-6-{[(1R)-1-cyclobutylethyl]amino}-7-[4-(trifluoromethyl)benzyl] - 7H-purine-2-carboxylic acid], which IC50 is on record?
A: 10.4 nM

Q: `C[C@@H](Nc1nc(C(=O)O)nc2nc(-c3ccc4c(c3)CCO4)n(Cc3ccc(C(F)(F)F)cc3)c12)C1CCC1` [Example 1.121, 6-{[(1R)-1-cyclobutylethyl]amino}-8-(2,3-dihydro-1-benzofuran-5-yl)-7-[4-(trifluoromethyl)benzyl]-7H-purine-2-carboxylic acid] was tested. Which IC50 did it give?
A: 7.81 nM

Q: How did the IC50 turn out when `C[C@@H](Nc1nc(C(=O)O)nc2nc(-c3cccc(C(F)(F)F)n3)n(Cc3ccc(C(F)(F)F)cc3)c12)C1CCC1` [Example 1.122, 6-{[(1R)-1-cyclobutylethyl]amino}-7-[4-(trifluoromethyl)benzyl]-8-[6-(trifluoromethyl)pyridin-2-yl]-7H-purine-2-carboxylic acid] was run?
A: 21.2 nM

Q: For `COc1cc(C)cc(-c2nc3nc(C(=O)O)nc(N[C@H](C)C4CCC4)c3n2Cc2ccc(C(F)(F)F)cc2)c1` [Example 1.123, 6-{[(1R)-1-cyclobutylethyl]amino}-8-(3-methoxy-5-methylphenyl)-7-[4-(trifluoromethyl)benzyl]-7H-purine-2-carboxylic acid], which IC50 is on record?
A: 53.6 nM

Q: For `COc1cc(-c2nc3nc(C(=O)O)nc(N[C@H](C)C4CCC4)c3n2Cc2ccc(C(F)(F)F)cc2)ccc1Cl` [Example 1.124, 8-(4-chloro-3-methoxyphenyl)-6-{[(1R)-1-cyclobutylethyl]amino}-7-[4-(trifluoromethyl)benzyl]-7H-purine-2-carboxylic acid], which IC50 is on record?
A: 26.4 nM

Q: Which IC50 does the source give for `C[C@@H](Nc1nc(C(=O)O)nc2nc(-c3ccc4c(c3)OCCN4C)n(Cc3ccc(C(F)(F)F)cc3)c12)C1CCC1` [Example 1.125, 6-{[(1R)-1-cyclobutylethyl]amino}-8-(4-methyl-3,4-dihydro-2H-1,4-benzoxazin-7-yl)-7-[4-(trifluoromethyl)benzyl]-7H-purine-2-carboxylic acid] here?
A: 116 nM
